Activity calls are given as the source filed them. The calls are words filed in the database; no cut-off is given here.
Experiments:
[1] = biological target: Transient receptor potential cation channel subfamily M member 7 (Rattus norvegicus) (UniProt Q925B3); assay: Inhibition of TRPM7 in rat retinal explants exposed to oxygen glucose deprivation condition for 1 hr assessed as protection against TRPM7-mediated cell death at by propidium iodide uptake assay
[2] = biological target: Transient receptor potential cation channel subfamily M member 7 (Rattus norvegicus) (UniProt Q925B3); assay: Inhibition of TRPM7 in rat H9C2 cells assessed as reduction in channel currents at 0.3 to 30 uM by whole cell patch clamp assay; type: cell-based
[3] = biological target: Transient receptor potential cation channel subfamily M member 7 (Rattus norvegicus) (UniProt Q925B3); assay: Inhibition of TRPM7 in rat H9c2 cells assessed as protection against oxygen glucose deprivation-induced cell death at 0.05 to 5 uM pre-treated for 24 hrs before OGD in presence of 1 uM nifedipine; type: cell-based
Mus musculus [4] = organism: Mus musculus; assay: Inhibition of potassium channel in mouse cortical neurons assessed as reduction in potassium currents at -10mV membrane potential
[5] = biological target: Transient receptor potential cation channel subfamily M member 7 (Mus musculus) (UniProt Q923J1); assay: Inhibition of TRPM7 in mouse AML12 cells assessed as protection against oxygen glucose deprivation-induced cell death at 0.5 to 5 uM; type: cell-based
Sequence of Transient receptor potential cation channel subfamily M member 7 (Mus musculus) (Q923J1 whole entry): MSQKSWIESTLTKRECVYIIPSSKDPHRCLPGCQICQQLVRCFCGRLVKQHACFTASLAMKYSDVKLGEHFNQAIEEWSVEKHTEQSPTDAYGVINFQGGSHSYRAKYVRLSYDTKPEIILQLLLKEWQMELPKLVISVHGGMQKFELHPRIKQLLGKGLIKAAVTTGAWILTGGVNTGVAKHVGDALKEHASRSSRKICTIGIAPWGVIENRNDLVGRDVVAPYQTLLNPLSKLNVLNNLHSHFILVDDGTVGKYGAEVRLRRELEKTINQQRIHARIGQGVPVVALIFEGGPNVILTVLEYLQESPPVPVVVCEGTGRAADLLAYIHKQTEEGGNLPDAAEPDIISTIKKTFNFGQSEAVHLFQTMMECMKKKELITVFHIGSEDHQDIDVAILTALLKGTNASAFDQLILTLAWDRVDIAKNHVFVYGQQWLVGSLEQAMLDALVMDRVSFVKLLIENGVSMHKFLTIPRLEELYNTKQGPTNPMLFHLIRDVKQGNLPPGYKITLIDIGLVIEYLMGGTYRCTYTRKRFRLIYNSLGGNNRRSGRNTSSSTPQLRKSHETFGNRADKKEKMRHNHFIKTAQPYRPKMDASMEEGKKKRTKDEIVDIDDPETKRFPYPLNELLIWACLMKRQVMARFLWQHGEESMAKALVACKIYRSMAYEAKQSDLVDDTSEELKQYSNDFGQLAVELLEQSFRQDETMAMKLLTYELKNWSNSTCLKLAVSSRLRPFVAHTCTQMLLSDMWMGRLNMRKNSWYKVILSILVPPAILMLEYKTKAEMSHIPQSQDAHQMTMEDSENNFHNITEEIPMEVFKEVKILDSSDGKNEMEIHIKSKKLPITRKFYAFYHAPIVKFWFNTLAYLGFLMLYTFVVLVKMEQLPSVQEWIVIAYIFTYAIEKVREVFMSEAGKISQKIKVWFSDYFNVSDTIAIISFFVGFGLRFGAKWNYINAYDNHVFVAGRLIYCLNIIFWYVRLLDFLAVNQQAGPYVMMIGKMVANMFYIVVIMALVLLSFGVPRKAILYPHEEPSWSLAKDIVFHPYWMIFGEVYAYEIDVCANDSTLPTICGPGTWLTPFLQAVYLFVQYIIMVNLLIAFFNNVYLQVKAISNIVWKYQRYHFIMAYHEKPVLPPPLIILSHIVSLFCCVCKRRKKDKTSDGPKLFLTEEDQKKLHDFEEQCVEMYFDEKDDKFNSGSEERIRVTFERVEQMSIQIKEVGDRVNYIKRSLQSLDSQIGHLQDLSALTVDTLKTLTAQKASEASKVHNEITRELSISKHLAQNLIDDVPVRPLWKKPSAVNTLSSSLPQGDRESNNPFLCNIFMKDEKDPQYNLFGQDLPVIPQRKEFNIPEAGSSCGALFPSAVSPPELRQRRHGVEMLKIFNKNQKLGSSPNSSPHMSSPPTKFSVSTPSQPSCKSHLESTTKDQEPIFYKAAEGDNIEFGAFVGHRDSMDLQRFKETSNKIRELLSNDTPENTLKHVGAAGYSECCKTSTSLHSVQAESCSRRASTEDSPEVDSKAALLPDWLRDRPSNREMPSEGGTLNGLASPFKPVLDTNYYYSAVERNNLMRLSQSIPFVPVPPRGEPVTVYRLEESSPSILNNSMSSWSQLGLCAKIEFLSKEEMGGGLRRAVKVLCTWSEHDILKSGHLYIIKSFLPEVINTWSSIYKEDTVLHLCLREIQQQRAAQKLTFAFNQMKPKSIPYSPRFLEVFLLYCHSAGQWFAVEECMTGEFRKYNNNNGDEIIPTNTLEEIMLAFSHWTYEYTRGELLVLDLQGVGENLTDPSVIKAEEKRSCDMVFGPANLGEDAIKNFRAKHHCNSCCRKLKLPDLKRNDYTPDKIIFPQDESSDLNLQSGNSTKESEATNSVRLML

[6] = biological target: Transient receptor potential cation channel subfamily M member 7 (Rattus norvegicus) (UniProt Q925B3); assay: Inhibition of TRPM7 in rat H9c2 cells assessed as protection against oxygen glucose deprivation-induced cell death at 0.05 to 5 uM in presence of 1 uM nifedipine; type: cell-based
Rattus norvegicus [7] = assay: Analgesic activity in iv dosed rat model of formalin-induced inflammatory pain assessed reduction in formalin-induced phase-1 pain flinches; type: functional, organism-based
Rattus norvegicus [8] = organism: Rattus norvegicus; assay: Reduction in retinal cell death in rat model of acute glaucoma assessed as reduction in TUNEL positive cells after exposure to 1 hr high IOP at 1 uM; type: functional, organism-based
[9] = biological target: Transient receptor potential cation channel subfamily M member 7 (Rattus norvegicus) (UniProt Q925B3); assay: Inhibition of TRPM7 in Sprague-Dawley rat retinal explants dissociated and subjected to 1 hr oxygen-glucose deprivation assessed as reduction in retinal cell death at 1 and 5 uM
[10] = biological target: Glutamate NMDA receptor (Mus musculus) (UniProt P35436+Q91ZU9+Q03391+P35438+Q01097+Q01098+A2AIR5); assay: Inhibition of NMDA receptor in mouse cortical neurons assessed as effect on NMDA currents; type: protein-complex assay
Mus musculus [11] = organism: Mus musculus; assay: Inhibition of sodium channel in mouse cortical neurons assessed as effect on Na+ currents
[12] = biological target: Transient receptor potential cation channel subfamily M member 7 (Mus musculus) (UniProt Q923J1); assay: Inhibition of Tet-induced Flag-tagged mouse TRPM7 expressed in HEK293 cells assessed as reduction in channel currents at 0.3 to 30 uM by whole cell patch clamp assay; type: cell-based
[13] = biological target: Transient receptor potential cation channel subfamily A member 1 (Homo sapiens) (UniProt O75762); assay: Inhibition of TRPA1 ((unknown origin) expressed in HEK293 cells assessed as effect on agonist-induced Ca2+ changes; type: functional, cell-based
Sequence of Transient receptor potential cation channel subfamily A member 1 (Homo sapiens) (O75762 whole entry): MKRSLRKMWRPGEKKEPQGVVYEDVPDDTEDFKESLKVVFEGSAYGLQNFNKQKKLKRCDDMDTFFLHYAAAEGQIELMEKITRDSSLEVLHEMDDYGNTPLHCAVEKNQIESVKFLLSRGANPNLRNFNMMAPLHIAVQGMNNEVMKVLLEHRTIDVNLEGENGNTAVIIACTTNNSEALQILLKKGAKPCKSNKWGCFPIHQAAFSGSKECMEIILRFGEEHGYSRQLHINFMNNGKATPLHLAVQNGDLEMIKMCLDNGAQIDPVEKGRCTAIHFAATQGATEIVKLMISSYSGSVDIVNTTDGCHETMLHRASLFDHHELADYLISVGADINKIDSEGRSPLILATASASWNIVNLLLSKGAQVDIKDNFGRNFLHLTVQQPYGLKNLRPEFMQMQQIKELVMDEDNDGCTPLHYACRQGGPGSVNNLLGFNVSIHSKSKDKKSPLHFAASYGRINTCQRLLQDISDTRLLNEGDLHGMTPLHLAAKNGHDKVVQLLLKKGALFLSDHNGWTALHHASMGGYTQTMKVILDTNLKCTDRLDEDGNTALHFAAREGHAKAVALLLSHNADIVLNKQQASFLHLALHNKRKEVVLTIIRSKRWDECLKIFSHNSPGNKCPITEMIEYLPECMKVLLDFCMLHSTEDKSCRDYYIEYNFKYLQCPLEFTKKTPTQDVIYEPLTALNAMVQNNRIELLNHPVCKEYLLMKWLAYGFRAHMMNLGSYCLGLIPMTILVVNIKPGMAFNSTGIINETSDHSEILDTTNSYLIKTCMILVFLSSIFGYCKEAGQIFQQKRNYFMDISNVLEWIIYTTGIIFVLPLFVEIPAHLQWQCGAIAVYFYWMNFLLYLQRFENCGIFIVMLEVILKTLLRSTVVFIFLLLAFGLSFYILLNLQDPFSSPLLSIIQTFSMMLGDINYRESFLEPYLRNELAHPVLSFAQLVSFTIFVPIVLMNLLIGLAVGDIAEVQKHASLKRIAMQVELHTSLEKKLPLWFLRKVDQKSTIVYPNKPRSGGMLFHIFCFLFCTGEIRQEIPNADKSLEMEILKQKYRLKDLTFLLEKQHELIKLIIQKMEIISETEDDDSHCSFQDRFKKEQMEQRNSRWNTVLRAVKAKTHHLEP

[14] = biological target: Transient receptor potential cation channel subfamily V member 1 (Homo sapiens) (UniProt Q8NER1); assay: Inhibition of TRPV1 (unknown origin) expressed in HEK293 cells assessed as effect on agonist-induced Ca2+ changes; type: functional, cell-based
Mus musculus [15] = assay: Reduction in dead cells following LAD restriction of heart in mouse model of permanent LAD coronary artery ligation at 10 to 100 ug/kg, iv administered as single dose within 15 mins of LAD occlusion by TUNEL assay; type: functional, organism-based
[16] = biological target: Transient receptor potential cation channel subfamily M member 6 (Homo sapiens) (UniProt Q9BX84); assay: Inhibition of TRPM6 (unknown origin) expressed in HEK293 cells assessed as effect on agonist-induced Ca2+ changes; type: functional, cell-based
[17] = biological target: Transient receptor potential cation channel subfamily M member 7 (Rattus norvegicus) (UniProt Q925B3); assay: Inhibition of TRPM7 in rat H9c2 cells assessed as protection against oxygen glucose deprivation-induced cell death at 0.05 to 5 uM pre-treated for 24 hrs before OGD; type: cell-based
[18] = biological target: Transient receptor potential cation channel subfamily M member 2 (Homo sapiens) (UniProt O94759); assay: Inhibition of TRPM2 (unknown origin) expressed in HEK293 cells assessed as effect on agonist-induced Ca2+ changes; type: functional, cell-based
[19] = biological target: Transient receptor potential cation channel subfamily M member 7 (Rattus norvegicus) (UniProt Q925B3); assay: Inhibition of TRPM7 in rat H9C2 cells exposed to 6 hrs oxygen glucose deprivation condition followed by 2 hrs recovery assessed as reduction in TRPM7-mediated anoxic cell death at 0.05 to 5 uM by propidium iodide uptake assay; type: cell-based
Mus musculus [20] = assay: Toxicity in mouse up to 150 uM, iv; type: organism-based; details: in vivo
[21] = biological target: Transient receptor potential cation channel subfamily M member 7 (Rattus norvegicus) (UniProt Q925B3); assay: Inhibition of TRPM7 in rat H9C2 cells exposed to oxygen glucose deprivation condition for 1 to 6 hrs assessed as reduction in TRPM7-mediated anoxic cell death in presence of 1 uM nifedipine by propidium iodide uptake assay; type: cell-based
Mus musculus [22] = assay: Reduction in infarct volume in mouse model of permanent LAD coronary artery ligation at 10 to 335 ug/kg, iv administered as single dose within 15 mins of LAD occlusion by TTC staining based method; type: functional, organism-based
[23] = biological target: Transient receptor potential cation channel subfamily M member 7 (Rattus norvegicus) (UniProt Q925B3); assay: Inhibition of TRPM7 in Sprague-Dawley rat retinal explants subjected to 1 hr oxygen-glucose deprivation assessed as reduction in retinal ischemia at 5 uM
[24] = biological target: Glutamate receptor ionotropic, AMPA (Mus musculus) (UniProt P23819+P23818+Q9Z2W8+Q9Z2W9); assay: Inhibition of AMPA receptor in mouse cortical neurons assessed as effect on AMPA currents; type: protein-complex assay
[25] = biological target: Transient receptor potential cation channel subfamily M member 7 (Rattus norvegicus) (UniProt Q925B3); assay: Inhibition of TRPM7 in rat H9c2 cells assessed as protection against oxygen glucose deprivation-induced cell death at 0.05 to 5 uM; type: cell-based
[26] = biological target: Transient receptor potential cation channel subfamily M member 7 (Mus musculus) (UniProt Q923J1); assay: Inhibition of TRPM7 in mouse mouse primary cortical neurons exposed to 2 hrs oxygen glucose deprivation condition assessed as reduction in TRPM7-mediated anoxic cell death measured after 20 hrs by propidium iodide uptake assay; type: cell-based; details: Cerebral cortex neuron
Rattus norvegicus [27] = assay: Analgesic activity in iv dosed rat model of formalin-induced inflammatory pain assessed reduction in formalin-induced phase-2 pain flinches; type: functional, organism-based
[28] = biological target: Transient receptor potential cation channel subfamily M member 7 (Mus musculus) (UniProt Q923J1); assay: Inhibition of Tet-induced Flag-tagged mouse TRPM7 expressed in HEK293 cells assessed as inhibition of channel-mediated cell death in presence of Mg2+ incubated for 24 to 48 hrs by propidium iodide uptake assay; type: cell-based; set-up: concentration or dose not given beside the values
[29] = biological target: Transient receptor potential cation channel subfamily M member 7 (Mus musculus) (UniProt Q923J1); assay: Inhibition of TRPM7 in mouse primary neuronal cells exposed to oxygen glucose deprivation condition for 1 to 3 hrs assessed as reduction in TRPM7-mediated anoxic cell death dosed before oxygen glucose deprivation condition by propidium iodide uptake assay; details: Primary neuron
[30] = biological target: Transient receptor potential cation channel subfamily M member 4 (Homo sapiens) (UniProt Q8TD43); assay: Inhibition of TRPM4 (unknown origin) expressed in HEK293 cells assessed as effect on agonist-induced Ca2+ changes; type: functional, cell-based
[31] = biological target: Transient receptor potential cation channel subfamily M member 7 (Mus musculus) (UniProt Q923J1); assay: Inhibition of TRPM7 in mouse mouse primary cortical neurons exposed to 1 hrs oxygen glucose deprivation condition assessed as reduction in TRPM7-mediated anoxic cell death at 1.25 to 10 uM measured after 20 hrs by propidium iodide uptake assay; type: cell-based; details: Cerebral cortex neuron
Mus musculus [32] = organism: Mus musculus; assay: Inhibition of calcium channel in mouse cortical neurons assessed as effect on Ca2+ currents; type: functional
[33] = biological target: Protein XNDC1N (Homo sapiens) (UniProt Q6ZNB5); assay: Inhibition of TRPC2 (unknown origin) expressed in HEK293 cells assessed as effect on agonist-induced Ca2+ changes; type: functional, cell-based
Sequence of Protein XNDC1N (Homo sapiens) (Q6ZNB5 whole entry): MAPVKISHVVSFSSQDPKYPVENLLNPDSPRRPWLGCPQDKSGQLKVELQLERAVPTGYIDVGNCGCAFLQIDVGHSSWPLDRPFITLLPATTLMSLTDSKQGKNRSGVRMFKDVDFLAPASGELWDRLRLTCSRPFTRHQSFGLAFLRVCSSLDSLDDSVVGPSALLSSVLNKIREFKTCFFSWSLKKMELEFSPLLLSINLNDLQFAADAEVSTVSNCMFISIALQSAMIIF

[34] = biological target: Transient receptor potential cation channel subfamily M member 7 (Mus musculus) (UniProt Q923J1); assay: Inhibition of TRPM7 in mouse primary neuronal cells exposed to oxygen glucose deprivation condition for 1 to 3 hrs assessed as reduction in TRPM7-mediated anoxic cell death dosed after oxygen glucose deprivation condition by propidium iodide uptake assay; details: Primary neuron
[35] = biological target: Transient receptor potential cation channel subfamily M member 7 (Mus musculus) (UniProt Q923J1); assay: Inhibition of Tet-induced Flag-tagged mouse TRPM7 expressed in HEK293 cells assessed as reduction in channel currents at 2 mM using compound applied extracellularly by whole cell patch clamp assay; type: cell-based
[36] = biological target: Transient receptor potential cation channel subfamily M member 7 (Mus musculus) (UniProt Q923J1); assay: Inhibition of Tet-induced Flag-tagged mouse TRPM7 expressed in HEK293 cells assessed as reduction in channel currents at 2 mM using compound applied intracellularly by whole cell patch clamp assay; type: cell-based
Mus musculus [37] = assay: Reduction in damage to heart in mouse model of myocardial infarction at 10 to 35 ug/kg; type: functional, organism-based
[38] = biological target: Transient receptor potential cation channel subfamily M member 7 (Rattus norvegicus) (UniProt Q925B3); assay: Inhibition of TRPM7 in cultured rat retinal ganglion cells exposed to oxygen glucose deprivation condition for 3 hrs assessed as protection against TRPM7-mediated cell death at by propidium iodide uptake assay; set-up: scale not given: the % may be the effect or the level left
[39] = Inhibition of cell proliferation of human WERI cells at 10 uM incubated for 48 to 96 hrs; type: functional
[40] = biological target: Transient receptor potential cation channel subfamily M member 7 (Rattus norvegicus) (UniProt Q925B3); assay: Inhibition of TRPM7 in rat H9c2 cells assessed as protection against oxygen glucose deprivation-induced cell death at 0.05 to 5 uM applied during OGD; type: cell-based

Sequence of Transient receptor potential cation channel subfamily M member 7 (Rattus norvegicus) (Q925B3 whole entry): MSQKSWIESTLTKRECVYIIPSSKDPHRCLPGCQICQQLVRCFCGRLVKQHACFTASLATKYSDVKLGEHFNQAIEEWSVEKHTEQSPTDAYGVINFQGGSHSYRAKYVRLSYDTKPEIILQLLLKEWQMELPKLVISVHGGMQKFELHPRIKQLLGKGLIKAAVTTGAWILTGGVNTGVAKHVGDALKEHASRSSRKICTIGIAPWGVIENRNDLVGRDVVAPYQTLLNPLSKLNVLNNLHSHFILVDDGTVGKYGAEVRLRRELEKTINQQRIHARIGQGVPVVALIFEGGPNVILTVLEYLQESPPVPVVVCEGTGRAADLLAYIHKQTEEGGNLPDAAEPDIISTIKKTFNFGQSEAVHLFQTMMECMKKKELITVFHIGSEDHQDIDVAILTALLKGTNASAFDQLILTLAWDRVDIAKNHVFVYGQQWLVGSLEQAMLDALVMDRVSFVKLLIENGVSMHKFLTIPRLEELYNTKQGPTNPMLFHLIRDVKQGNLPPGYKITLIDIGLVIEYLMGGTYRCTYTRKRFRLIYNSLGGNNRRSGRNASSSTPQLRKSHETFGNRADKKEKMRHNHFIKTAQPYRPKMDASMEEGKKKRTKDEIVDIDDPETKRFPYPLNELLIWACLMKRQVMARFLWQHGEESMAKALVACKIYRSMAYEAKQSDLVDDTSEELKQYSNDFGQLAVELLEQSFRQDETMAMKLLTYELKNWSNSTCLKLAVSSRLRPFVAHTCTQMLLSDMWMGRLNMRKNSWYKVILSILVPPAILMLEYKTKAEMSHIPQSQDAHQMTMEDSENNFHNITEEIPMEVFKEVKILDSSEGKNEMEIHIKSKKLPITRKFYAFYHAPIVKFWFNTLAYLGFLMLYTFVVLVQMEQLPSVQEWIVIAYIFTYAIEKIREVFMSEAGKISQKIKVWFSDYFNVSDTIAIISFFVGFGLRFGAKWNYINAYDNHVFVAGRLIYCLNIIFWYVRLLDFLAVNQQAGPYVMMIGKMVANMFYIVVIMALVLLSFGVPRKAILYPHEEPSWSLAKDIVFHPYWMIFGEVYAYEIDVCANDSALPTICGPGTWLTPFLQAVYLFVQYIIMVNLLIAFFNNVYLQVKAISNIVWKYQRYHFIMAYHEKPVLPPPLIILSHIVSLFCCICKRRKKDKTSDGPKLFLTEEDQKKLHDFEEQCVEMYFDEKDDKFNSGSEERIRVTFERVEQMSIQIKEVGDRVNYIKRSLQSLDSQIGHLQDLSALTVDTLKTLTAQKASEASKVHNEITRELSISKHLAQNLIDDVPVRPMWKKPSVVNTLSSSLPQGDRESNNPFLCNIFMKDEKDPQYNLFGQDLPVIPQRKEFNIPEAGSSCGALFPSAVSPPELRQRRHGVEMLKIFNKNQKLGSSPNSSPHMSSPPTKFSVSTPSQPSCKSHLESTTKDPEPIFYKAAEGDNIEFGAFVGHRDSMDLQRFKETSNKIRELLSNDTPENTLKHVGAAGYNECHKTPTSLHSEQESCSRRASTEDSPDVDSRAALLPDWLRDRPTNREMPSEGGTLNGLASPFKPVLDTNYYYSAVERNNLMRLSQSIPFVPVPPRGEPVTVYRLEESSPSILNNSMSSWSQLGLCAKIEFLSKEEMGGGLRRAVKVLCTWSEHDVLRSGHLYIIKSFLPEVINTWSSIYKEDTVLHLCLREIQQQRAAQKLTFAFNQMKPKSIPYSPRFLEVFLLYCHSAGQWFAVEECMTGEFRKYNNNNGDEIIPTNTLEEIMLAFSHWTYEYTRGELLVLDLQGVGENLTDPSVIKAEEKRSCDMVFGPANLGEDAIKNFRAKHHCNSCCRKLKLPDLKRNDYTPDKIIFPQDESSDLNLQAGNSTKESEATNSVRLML

Structure (SMILES): Cc1c(Cc2ccc(Cl)c(Cl)c2)c(=O)oc2cc(O)ccc12
- inhibition [1]: Active
- inhibition [2]: Active
- inhibition [3]: Active
- inhibition (Mus musculus [4]): 20%
- inhibition [5]: Active
- inhibition [6]: Active
- Activity (Rattus norvegicus [7]): inactive
- Activity (Rattus norvegicus [8]): Active
- inhibition [9]: Active
- inhibition [10]: inactive
- inhibition (Mus musculus [11]): inactive
- inhibition [12]: Active
- inhibition [13]: inactive
- inhibition [14]: inactive
- Activity (Mus musculus [15]): Active
- inhibition [16]: inactive
- inhibition [17]: Active
- inhibition [18]: inactive
- inhibition [19]: Active
- Activity (Mus musculus [20]): Non-toxic
- inhibition [21]: Active
- Activity (Mus musculus [22]): Active
- inhibition [23]: Active
- inhibition [24]: inactive
- inhibition [25]: Active
- inhibition [26]: Active
- Activity (Rattus norvegicus [27]): Active
- inhibition [28]: Active
- inhibition [29]: Active
- inhibition [30]: inactive
- inhibition [31]: Active
- inhibition (Mus musculus [32]): inactive
- inhibition [33]: inactive
- inhibition [34]: Active
- inhibition [35]: Active
- inhibition [36]: inactive
- Activity (Mus musculus [37]): Active
- Activity [38]: 66%
- inhibition at 10 µM [39]: > 20%
- inhibition [40]: Active

Source: ChEMBL document CHEMBL3727350, “Agents and methods for treating ischemic and other diseases” (2014)
